target: T1, human S1P3 receptor (Homo sapiens, UniProt Q99500); test: FLIPR Ca+2 response assay, activation of human S1P3 receptor in T24 cells; assay type: cell-based; settings: T24 cells stably expressing human S1P3; tested 0.61 nM to 10,000 nM
T1 construct: expressed in transfected cells
Description: Compounds were also assessed for their ability to activate or block activation of the human S1P3 receptor in T24 cells stably expressing the human S1P3 receptor. Ten thousand cells/well were plated into 384-well poly-D-lysine coated plates one day prior to use. The growth media for the S1P3 receptor expressing cell line was McCoy's 5A medium supplemented with 10% charcoal-treated fetal bovine serum (FBS), 1% antibiotic-antimycotic and 400 μg/ml geneticin. On the day of the experiment, the cells were washed twice with Hank's Balanced Salt Solution supplemented with 20 mM HEPES (HBSS/Hepes buffer). The cells were then dye loaded with 2 uM Fluo-4 diluted in the HBSS/Hepes buffer with 1.25 mM Probenecid and incubated at 37° C. for 40 minutes. Extracellular dye was removed by washing the cell plates four times prior to placing the plates in the FLIPR (Fluorometric Imaging Plate Reader, Molecular Devices). Ligands were diluted in HBSS/Hepes buffer and prepared in 384-well microplates. The positive control, Sphingosine-1-Phosphate (S1P), was diluted in HBSS/Hepes buffer with 4 mg/ml fatty acid free bovine serum albumin. The FLIPR transferred 12.5 μl from the ligand microplate to the cell plate and took fluorescent measurements for 75 seconds, taking readings every second, and then for 2.5 minutes, taking readings every 10 seconds. Drugs were tested over the concentration range of 0.61 nM to 10,000 nM. Data for Ca^+2 responses were obtained in arbitrary fluorescence units and not translated into Ca^+2 concentrations. IC50 values were determined through a […] regression analysis using the Levenburg Marquardt algorithm. In Table 1, NA is defined as “Not Active,” ND is defined as “Not Determined,” % efficacy is defined as “percent of receptor activity induced by a test compound at the highest dose test (10 μM) relative to the receptor activity induced by 5 nM sphingosine-1-phosphate,” and % inhibition is defined as “percent of receptor activity induced by 5 nM sphingosine-1-phosphate that is inhibited by a test compound at the highest dose tested (10 μM).”

T1 sequence (Q99500 whole entry): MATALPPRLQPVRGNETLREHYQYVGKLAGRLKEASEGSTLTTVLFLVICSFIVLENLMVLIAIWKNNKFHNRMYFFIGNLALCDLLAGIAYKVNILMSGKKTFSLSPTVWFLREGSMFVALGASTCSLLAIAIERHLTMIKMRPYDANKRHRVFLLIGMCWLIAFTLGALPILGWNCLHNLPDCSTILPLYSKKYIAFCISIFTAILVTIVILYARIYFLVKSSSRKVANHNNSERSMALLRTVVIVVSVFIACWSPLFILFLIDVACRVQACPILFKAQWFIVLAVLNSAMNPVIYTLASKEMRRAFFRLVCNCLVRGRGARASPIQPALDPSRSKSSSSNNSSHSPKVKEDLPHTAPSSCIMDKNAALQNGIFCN

Row | SMILES | EC50
1 | CCc1ccc(-c2ccc(C(=O)OC)nc2-c2ccncc2)cc1 [Example 52, Methyl 5-(4-Ethylphenyl)-6-(pyridin-4-yl)pyridine-2-carboxylate] | 340 nM

same assay, conditions: T24 cells stably expressing human S1P3; tested 0.61 nM to 10,000 nM; NA = Not Active

Row | SMILES | EC50
2 | CCOC(=O)c1nnc(-c2ccc(CC)cc2)c(-c2ccccc2)n1 [Example 13, Ethyl 6-(4-Ethylphenyl)-5-phenyl-1,2,4-triazine-3-carboxylate] | 1600 nM
3 | CCOC(=O)c1nnc(-c2ccc(C)cc2)c(-c2ccccc2)n1 [Example 17, Ethyl 5-Phenyl-6-p-tolyl-1,2,4-triazine-3-carboxylate] | 2900 nM
4 | CCOC(=O)c1ccc(-c2ccccc2)c(-c2ccccc2)n1 [Example 21, Ethyl 5,6-diphenylpyridine-2-carboxylate] | 1800 nM
5 | CCOC(=O)c1ccc(-c2ccc(C)cc2)c(-c2ccccc2)n1 [Example 22, Ethyl 6-Phenyl-5-p-tolyl-pyridine-2-carboxylate] | 740 nM
6 | CCOC(=O)c1ccc(-c2ccc(CC)cc2)c(-c2ccccc2)n1 [Example 23, Ethyl 5-(4-Ethyl-phenyl)-6-phenyl-pyridine-2-carboxylate] | 1400 nM
7 | CCCc1ccc(-c2ccc(C(=O)OCC)nc2-c2ccccc2)cc1 [Example 24, Ethyl 6-Phenyl-5-(4-propylphenyl)-pyridine-2-carboxylate] | 3100 nM
8 | CCOC(=O)c1ccc(-c2ccccc2)c(-c2ccc(C)cc2)n1 [Example 27, Ethyl 5-Phenyl-6-p-tolyl-pyridine-2-carboxylate] | 3700 nM
9 | CCOC(=O)c1ccc(-c2ccccc2)c(-c2ccc(CC)cc2)n1 [Example 28, Ethyl 6-(4-Ethylphenyl)-5-phenyl-pyridine-2-carboxylate] | 2900 nM
10 | COC(=O)c1ccc(-c2ccccc2)c(-c2ccccc2)n1 [Example 30, Methyl 5,6-diphenylpyridine-2-carboxylate] | 700 nM
11 | COC(=O)c1ccc(-c2ccc(C)cc2)c(-c2ccccc2)n1 [Example 31, Methyl 6-Phenyl-5-p-tolyl-pyridine-2-carboxylate] | 580 nM
12 | CCc1ccc(-c2ccc(C(=O)OC)nc2-c2ccccc2)cc1 [Example 32, Methyl 5-(4-Ethylphenyl)-6-phenyl-pyridine-2-carboxylate] | 570 nM
13 | CCCc1ccc(-c2ccc(C(=O)OC)nc2-c2ccccc2)cc1 [Example 33, Methyl 6-Phenyl-5-(4-propylphenyl)-pyridine-2-carboxylate] | 2900 nM
14 | COC(=O)c1ccc(-c2ccccc2)c(-c2ccc(C(F)(F)F)cc2)n1 [Example 35, Methyl 5-Phenyl-6-(4-trifluoromethylphenyl)-pyridine-2-carboxylate] | 2300 nM
15 | CC(=O)c1ccc(-c2ccccc2)c(-c2ccccc2)n1 [Example 75, 1-(5,6-Diphenyl-pyridin-2-yl)-ethanone] | > 10000 nM
16 | CCC(=O)c1ccc(-c2ccccc2)c(-c2ccccc2)n1 [Example 76, 1-(5,6-Diphenyl-pyridin-2-yl)-propan-1-one] | 3400 nM
17 | CCC(=O)c1ccc(-c2ccccc2)c(-c2ccc(C(F)(F)F)cc2)n1 [Example 79, 1-[5-Phenyl-6-(4-trifluoromethyl-phenyl)-pyridin-2-yl]-propan-1-one] | 2600 nM
18 | CCc1ccc(-c2nnc(C(=O)OC)nc2-c2ccccc2)cc1 [Example 89, Methyl 6-(4-Ethyl-phenyl)-5-phenyl-1,2,4-triazine-3-carboxylate] | 2300 nM
19 | COCc1ccc(-c2ccccc2)c(-c2ccccc2)n1 [Example 92, 6-Methoxymethyl-2,3-diphenyl-pyridine] | 2400 nM
20 | COC(=O)c1cnc(-c2ccccc2)c(-c2ccccc2)n1 [Example 93, Methyl 5,6-Diphenyl-pyrazine-2-carboxylate] | 4100 nM
21 | CC(=O)c1cnc(-c2ccccc2)c(-c2ccccc2)n1 [Example 94, 1-(5,6-Diphenyl-pyrazin-2-yl)-ethanone] | 2300 nM
22 | CCC(=O)c1cnc(-c2ccccc2)c(-c2ccccc2)n1 [Example 95, 1-(5,6-Diphenyl-pyrazin-2-yl)-propan-1-one] | 4400 nM

same assay, conditions: T-24; receptor activity at highest dose (10 μM) relative to that induced by 5 nM sphingosine-1-phosphate; read-out: S1P3 (% efficacy)

Row | SMILES | Emax at 10 µM
23 | CCOC(=O)c1nnc(-c2ccc(CC)cc2)c(-c2ccccc2)n1 [Example 13, Ethyl 6-(4-Ethylphenyl)-5-phenyl-1,2,4-triazine-3-carboxylate] | 57%
24 | CCOC(=O)c1nnc(-c2ccccc2)c(-c2ccc(C(F)(F)F)cc2)n1 [Example 19, Ethyl 5-(4-Trifluoromethylphenyl)-6-phenyl-1,2,4-triazine-3-carboxylatate] | 34%
25 | CCOC(=O)c1ccc(-c2ccccc2)c(-c2ccccc2)n1 [Example 21, Ethyl 5,6-diphenylpyridine-2-carboxylate] | 80%
26 | CCOC(=O)c1ccc(-c2ccc(C)cc2)c(-c2ccccc2)n1 [Example 22, Ethyl 6-Phenyl-5-p-tolyl-pyridine-2-carboxylate] | 32%
27 | CCOC(=O)c1ccc(-c2ccc(CC)cc2)c(-c2ccccc2)n1 [Example 23, Ethyl 5-(4-Ethyl-phenyl)-6-phenyl-pyridine-2-carboxylate] | 82%
28 | CCCc1ccc(-c2ccc(C(=O)OCC)nc2-c2ccccc2)cc1 [Example 24, Ethyl 6-Phenyl-5-(4-propylphenyl)-pyridine-2-carboxylate] | 50%
29 | CCOC(=O)c1ccc(-c2ccccc2)c(-c2ccc(C)cc2)n1 [Example 27, Ethyl 5-Phenyl-6-p-tolyl-pyridine-2-carboxylate] | 46%
30 | CCOC(=O)c1ccc(-c2ccccc2)c(-c2ccc(CC)cc2)n1 [Example 28, Ethyl 6-(4-Ethylphenyl)-5-phenyl-pyridine-2-carboxylate] | 48%
31 | COC(=O)c1ccc(-c2ccccc2)c(-c2ccccc2)n1 [Example 30, Methyl 5,6-diphenylpyridine-2-carboxylate] | 84%
32 | COC(=O)c1ccc(-c2ccc(C)cc2)c(-c2ccccc2)n1 [Example 31, Methyl 6-Phenyl-5-p-tolyl-pyridine-2-carboxylate] | 73%
33 | CCc1ccc(-c2ccc(C(=O)OC)nc2-c2ccccc2)cc1 [Example 32, Methyl 5-(4-Ethylphenyl)-6-phenyl-pyridine-2-carboxylate] | 88%
34 | CCCc1ccc(-c2ccc(C(=O)OC)nc2-c2ccccc2)cc1 [Example 33, Methyl 6-Phenyl-5-(4-propylphenyl)-pyridine-2-carboxylate] | 81%
35 | COC(=O)c1ccc(-c2ccccc2)c(-c2ccc(C(F)(F)F)cc2)n1 [Example 35, Methyl 5-Phenyl-6-(4-trifluoromethylphenyl)-pyridine-2-carboxylate] | 91%
36 | CCc1ccc(-c2ccc(C(=O)OC)nc2-c2ccncc2)cc1 [Example 52, Methyl 5-(4-Ethylphenyl)-6-(pyridin-4-yl)pyridine-2-carboxylate] | 90%
37 | CC(=O)c1ccc(-c2ccccc2)c(-c2ccccc2)n1 [Example 75, 1-(5,6-Diphenyl-pyridin-2-yl)-ethanone] | 51%
38 | CCC(=O)c1ccc(-c2ccccc2)c(-c2ccccc2)n1 [Example 76, 1-(5,6-Diphenyl-pyridin-2-yl)-propan-1-one] | 41%
39 | CCC(=O)c1ccc(-c2ccccc2)c(-c2ccc(C(F)(F)F)cc2)n1 [Example 79, 1-[5-Phenyl-6-(4-trifluoromethyl-phenyl)-pyridin-2-yl]-propan-1-one] | 30%
40 | CCc1ccc(-c2nnc(C(=O)OC)nc2-c2ccccc2)cc1 [Example 89, Methyl 6-(4-Ethyl-phenyl)-5-phenyl-1,2,4-triazine-3-carboxylate] | 64%
41 | COCc1ccc(-c2ccccc2)c(-c2ccccc2)n1 [Example 92, 6-Methoxymethyl-2,3-diphenyl-pyridine] | 59%
42 | COC(=O)c1cnc(-c2ccccc2)c(-c2ccccc2)n1 [Example 93, Methyl 5,6-Diphenyl-pyrazine-2-carboxylate] | 62%
43 | CC(=O)c1cnc(-c2ccccc2)c(-c2ccccc2)n1 [Example 94, 1-(5,6-Diphenyl-pyrazin-2-yl)-ethanone] | 61%
44 | CCC(=O)c1cnc(-c2ccccc2)c(-c2ccccc2)n1 [Example 95, 1-(5,6-Diphenyl-pyrazin-2-yl)-propan-1-one] | 95%

system: perfused porcine eyes; test: not given; settings: IOVS 45, 2263, 2004; cited from earlier work

Row | SMILES | decrease of outflow facility
45 | CCCCCCCCCCCCC/C=C/[C@@H](O)[C@@H](N)COP(=O)(O)O [Example S1P, Sphingosine-1-Phosphate] | > 30%
